Read-outs that look alike come from different tables or passages of the source. Marks after values point to notes of the source that are not given here.
How the values were obtained:
[1] = tested on: high fat-loading hamsters; assay: Antiarteriosclerotic activity in a model for the treatment of arteriosclerosis in high fat-loading hamsters; assay type: in vivo, male golden hamsters; details: for Degree of lipid deposition on the arterial wall: 10 weeks, aortic arch, Oil Red O; for Degree of lipid deposition on the arterial wall / Total blood cholesterol: Means ± S.E. (n=5); for Total blood cholesterol: in high fat diet for 10 weeks
Description: As test animals were used a group of 5 male golden hamsters of 6 weeks (available from Nihon SLC K.K.) Hamsters were fed with the following high fat diet for 10 weeks to prepare a model for arteriosclerosis.
During this period, the compound of the invention was continuously administered to a medicated group, simultaneously with feeding.
After blood collection, the aortic arch was excised and the adventitia was completely stripped off under microscopic observation. The tissue after fixed with 10% neutral buffered formalin was fat-stained with an Oil Red O solution and enclosed in a glycerol-gelatin solution on a slide glass to prepare a tissue preparation.
An area of the fat-stained site (µm^2) and an area of the artery (mm^2) were measured by means of an image analysis system (Adobe Photoshop, Unitimage for the Apple Macintosh) and a ratio of both values was calculated to determine a degree of lipid deposition on the arterial wall.
(§1) A total blood cholesterol level was measured according to an enzyme method (Autosera CHO-2, Daiichi Kagaku Yakuhin K.K.) using an autoanalyzer (Hitachi 7150 type).
The drug was given in admixture with a high fat diet at the concentrations of 0.003% and of 0.03%, and a dose was calculated from the amount of feed ingested and the body weight.
Composition of a high fat diet: A feed for rats MF (available from Oriental Kobo K.K.) to which 10% coconut oil and 0.05% cholesterol were supplemented. (Results)

[2] = tested on: cholesterol-loading rabbits; assay: Antiarteriosclerotic activity in a model for the treatment of arteriosclerosis in cholesterol-loading rabbits; assay type: in vivo, rabbits (NZW strain male); details: for inhibition at 3 mg/kg: Oryctolagus cuniculus
Experimental: As test animals were used a group of 10 rabbits previously fed with a 1% cholesterol-enriched feed to develop atherosclerosis (of 5 months, NZW strain male; available from Kitayama RABES K.K.)
A group of rabbits with arteriosclerosis were fed with a normal feed for rabbits RC-4 (available from Oriental Kobo K-K.) for 3 months and then adopted as a control group, while the compound of the invention was orally administered to a medicated group at 3 mg/kg once per day during this period.
After blood collection, the common carotid artery and the aorta were excised and a certain site thereof was fixed with 10% neutral buffered formalin to prepare a slice of the arterial tissue. Elastin elastic fiber-stained preparations were prepared by Elastic Van Gieson (EVG) staining, fat-stained preparations were prepared by Oil Red O staining and smooth muscle-stained preparations were prepared by anti-human α-actin antibody 1A4 staining.
A degree of intimal elastin fibrogenesis and a degree of medium lipid deposition were assessed in terms of 5 scores on elastin-positve and lipid staining-positive intensities (Grade; 0: No changes, 1: Minimum, 2: Mild, 3: Moderate, and 4: Severe). Areas of the intima (I) and of the medium (M) were measured by means of an image analysis system (Adobe Photoshop, Unitimage for the Apple Macintosh) and a ratio of both values (I/M) was calculated.
An elastin density of the fibrous cap in the intimal surface was calculated in terms of a ratio of the elastin-positive area to a given area of the intimal surface. A ratio of the α-actin-positive area to the intimal surface area at a similar site was defined as a smooth muscle density. Cholesterol was extracted from a portion of the excised aorta with a solution of chloroform : methanol (2:1) and was assayed according to an enzyme method (Cholesterol CII-Test WAKO, Free Cholesterol C-TEST WAKO, Wako Pure Chemical Industries, Ltd.)
as §1

[3] = tested on: hereditary hyperlipemic WHHL rabbits; assay: Antiarteriosclerotic activity in hereditary hyperlipemic WHHL rabbits; assay type: in vivo; details: for Total cholesterol in the arterial wall: 18 months, aorta; for Total cholesterol in the arterial wall / Total blood cholesterol / Intimal cholesterol deposition / Intimal surface elastin/collagen / Intimal collagen / Intimal elastin / Medium Elastin: Mean ± S.E.; for Total blood cholesterol: in feed over 18 months, at autopsy; for Intimal cholesterol deposition: plaque components in aortic arteriosclerosis; for Intimal cholesterol deposition / Intimal collagen / Intimal elastin / Medium Elastin: score, Grade 0-4; for Intimal surface elastin/collagen: ratio
Description: The compound of the invention was continuously administered to rabbits of 2 months with hereditary hyperlipemia (WHHL rabbits, available from Kitayama RABES K.K.) over 18 months and then the rabbits were autopsied.
A portion of the aorta was fixed with 10% neutral buffered formalin and then embedded in paraffin or freeze-embedded to prepare a slice of the arterial tissue. The slice was stained with Hematoxylin and Eosin (HE), Elastic Van Gieson (EVG), Azan-Mallory, and Oil Red O. A positive rate was assessed under microscopic observation in terms of 5 scores (Grade; 0: No changes, 1: Minimum, 2: Mild, 3: Moderate, and 4: Severe) to measure changes in components in the arteriosclerotic lesion. For another portion of the aorta, cholesterol was extracted with a solution of chloroform methanol (2:1) and a total cholesterol level in the arterial wall was assayed according to an enzyme method (Cholesterol CII-Test WAKO, Wako Pure Chemical Industries, Ltd.)
A total blood cholesterol level value at the autopsy was measured according to an enzyme method (Autosera CHO-2, Daiichi Kagaku Yakuhin K.K.) using an autoanalyzer (Hitachi 7150 type).
The drug was mixed into a feed for rabbits RC-4 (Oriental Kobo K.K.) at the concentrations of 0.005% and of 0.05%, and the resulting feed was given daily between 9:00 a.m. and 11:30 a.m. while the feed was restricted to 20 g/kg of body weight.

[4] = 3 mg/kg orally once per day, 3 months, aorta
[5] = 3 mg/kg, score, Grade 0: No change to 4: Severe, Mean ± S.E.

CCCCCCCCCCCCCCSCC(=O)Nc1c(C(C)C)cccc1C(C)C [Compound of the invention]
Degree of lipid deposition on the arterial wall ([1]; 1.5 mg/kg): 217.5±40.5* µm^2/mm^2 | Total blood cholesterol ([1]; 1.5 mg/kg): 372.0 ± 35.5 mg/dL | Degree of lipid deposition on the arterial wall ([1]; 15 mg/kg): 46.2± 8.6** µm^2/mm^2 | Total blood cholesterol ([1]; 15 mg/kg): 231.2 ± 4.9 mg/dL | inhibition at 1.5 mg/kg ([1]; Mesocricetus auratus, 1.5 mg/kg, vs. control group, read-out: Degree of lipid deposition on the arterial wall Inhibition (%)): 67.3% | inhibition at 15 mg/kg ([1]; Mesocricetus auratus, 15 mg/kg, vs. control group, read-out: Degree of lipid deposition on the arterial wall Inhibition (%)): 93.1% | Total blood cholesterol ([2]; 3 mg/kg orally once per day, 3 months): 113.4 ± 38.6 mg/dL | Degree of intimal thickening in the common carotid artery ([2]; 3 mg/kg orally once per day, 3 months, I/M = Area of the intima/Area of the medium): 0.45±0.18 I/M | Cholesteryl ester in the arterial wall [2, 4]: 219.1 ± 18.4 mg/g | Free cholesterol in the arterial wall [2, 4]: 119.1 ± 12.2 mg/g | Total cholesterol in the arterial wall [2, 4]: 338.2 ± 29.9 mg/g | Elastin density in the intimal surface ([2]; 3 mg/kg, ratio of elastin-positive area to a given area of the intimal surface): 151±30 | Density of smooth muscle in the intimal surface ([2]; 3 mg/kg, ratio of α-actin-positive area to the intimal surface area): 614±35 | Degree of intimal elastin fibrogenesis [2, 5]: 1.7±0.2 | Degree of medium lipid deposition [2, 5]: 1.2±0.1 | Degree of intimal elastin fibrogenesis Acceleration (%) ([2]; 3 mg/kg, vs. control group): 112.5% | Density of smooth muscle in the intimal surface Acceleration (%) ([2]; 3 mg/kg, vs. control group): 18.5% | Elastin density in the intimal surface Acceleration (%) ([2]; 3 mg/kg, vs. control group): 37.0% | inhibition at 3 mg/kg ([2]; 3 mg/kg, vs. control group, read-out: Cholesteryl ester in the arterial wall Inhibition (%)): 24.1% | inhibition at 3 mg/kg ([2]; 3 mg/kg, vs. control group, read-out: Degree of intimal thickening in the common carotid artery Inhibition (%)): 55.9% | inhibition at 3 mg/kg ([2]; 3 mg/kg, vs. control group, read-out: Degree of medium lipid deposition Inhibition (%)): 47.8% | regressing a degree of intimal thickening ([2]; aortic arch, phase of the complete plaque): no action of regressing a degree of intimal thickening | Total cholesterol in the arterial wall ([3]; 1 mg/kg): 29.3 ± 4.8 mg/g | Total blood cholesterol ([3]; 1 mg/kg): 462 ± 13 mg/dL | Intimal cholesterol deposition ([3]; 1 mg/kg): 2.6±0.2 | Intimal surface elastin/collagen ([3]; 1 mg/kg): 1.26±0.24 | Intimal collagen ([3]; 1 mg/kg): 3.0±0.2 | Intimal elastin ([3]; 1 mg/kg): 1.5±0.2 | Medium Elastin ([3]; 1 mg/kg): 0.93±0.20 | Total cholesterol in the arterial wall ([3]; 10 mg/kg): 32.2 ± 2.6 mg/g | Total blood cholesterol ([3]; 10 mg/kg): 438 ± 20 mg/dL | Intimal cholesterol deposition ([3]; 10 mg/kg): 2.2±0.1 | Intimal surface elastin/collagen ([3]; 10 mg/kg): 2.01±0.36 | Intimal collagen ([3]; 10 mg/kg): 3.0±0.1 | Intimal elastin ([3]; 10 mg/kg): 1.8±0.2 | Medium Elastin ([3]; 10 mg/kg): 1.59±0.09 | inhibition at 1 mg/kg ([3]; Oryctolagus cuniculus, 1 mg/kg, vs. control group, read-out: Total cholesterol in the arterial wall Inhibition (%)): 26.4% | inhibition at 10 mg/kg ([3]; Oryctolagus cuniculus, 10 mg/kg, vs. control group, read-out: Total cholesterol in the arterial wall Inhibition (%)): 19.1% | action on endothelial cells ([3]; old WHHL rabbit lesion): compacting endothelial cells

— patent EP0983764A1, “PREVENTIVES FOR ISCHEMIC HEART DISEASES” (TAISHO PHARMACEUTICAL CO. LTD, priority 1997, dated 1998)
